In patent publication US20230086703A1, “N-(4-(5-chloropyridin-3-yl)phenyl)-2-(2-(cyclopropanesulfonamido)pyrimidin-4-yl) butanamide derivatives and related compounds as human CTPS1 inhibitors for the treatment of proliferative diseases” (Step Pharma S.A.S., priority 2019, published 2023):
Like-named read-outs stand apart in the source and are kept apart here.

Columns and labels:
human CTPS1 [1] = molecular target: T1, human CTPS1 (Homo sapiens, UniProt P17812); test: RapidFire/MS-based enzyme selectivity assay (human CTPS1 versus CTPS2), CTPS1 isoform; assay type: biochemical; details: RapidFire/MS IC50 values of CTPS1 and CTPS2
T1 construct: FLAG (with GG linker); His8 (with GG linker); purchased Proteros biostructures GmbH
T1 sequence (P17812 1-591): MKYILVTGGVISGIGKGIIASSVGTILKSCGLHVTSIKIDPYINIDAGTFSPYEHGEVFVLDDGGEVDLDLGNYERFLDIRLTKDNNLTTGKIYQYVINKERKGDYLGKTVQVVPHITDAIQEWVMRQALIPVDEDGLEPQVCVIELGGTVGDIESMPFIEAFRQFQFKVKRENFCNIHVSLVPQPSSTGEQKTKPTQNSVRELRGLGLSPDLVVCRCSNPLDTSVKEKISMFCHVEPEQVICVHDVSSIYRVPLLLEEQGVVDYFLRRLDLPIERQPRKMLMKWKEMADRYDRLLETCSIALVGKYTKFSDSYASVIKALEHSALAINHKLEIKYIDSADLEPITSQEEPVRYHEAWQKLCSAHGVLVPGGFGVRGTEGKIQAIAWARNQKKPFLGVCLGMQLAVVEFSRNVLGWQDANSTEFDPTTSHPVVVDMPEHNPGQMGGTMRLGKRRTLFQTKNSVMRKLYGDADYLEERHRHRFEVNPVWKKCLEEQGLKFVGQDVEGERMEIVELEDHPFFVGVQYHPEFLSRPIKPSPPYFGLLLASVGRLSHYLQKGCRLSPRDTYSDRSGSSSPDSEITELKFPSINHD
Outline: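 Full-length C-terminal FLAG-His-tagged CTPS1 (1-591) was preincubated 10 min at 25 °C with compound in HEPES pH 8.0 buffer with MgCl2, KCl, DTT and Tween-20. Reactions were started with a 2× mix of ATP 0.3 mM, UTP 0.2 mM, GTP 0.07 mM and L-glutamine 0.1 mM, and run in the linear phase at 25 °C. IC50 comes from the RapidFire-MS ratio of CTP to 13C9-15N3-CTP.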

human CTPS1 [2] = molecular target: T1, human CTPS1; test: Human CTPS1 enzyme inhibition, ADP-Glo Max assay; assay type: biochemical
Outline: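 Read-out is ADP-Glo Max luminescence: residual ATP depleted (60 min), then produced ADP converted back to ATP for luciferase detection (60 min). Beforehand, protein and compound were mixed for 10 min at 25 °C in Tris buffer pH 8.0 with MgCl2, Tween-20 and 2 mM L-cysteine. Results expressed as percentage inhibition per concentration.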

[3] = Table 12, ADP-Glo Max assay, read-out: CTPS1 (Human CTPS1 Enzyme Inhibition data grouped by potency range)

Compound | Selectivity (fold selectivity between CTPS1 and CTPS2) (human CTPS1 [1]; Table 17) | IC50 (human CTPS1 [2]; [3]) [µM] | Selectivity (fold selectivity between CTPS1 and CTPS2) (human CTPS1 [1]; Table 15) | IC50 (human CTPS1 [2]; ADP-Glo Max assay, human full length CTPS1, read-out: CTPS1 (Human CTPS1 Enzyme Inhibition data grouped by potency range, IC50)) [µM]
CCOc1cncc(-c2ccc(NC(=O)C3(c4ccnc(NS(=O)(=O)C5CC5)n4)CCC(N(C)C)CC3)nc2)n1 (single isomer, unassigned) [P230, 1-(2-(cyclopropanesulfonamido)pyrimidin-4-yl)-4-(dimethylamino)-N-(5-(6-ethoxypyrazin-2-yl)pyridin-2-yl)cyclohexane-1-carboxamide] | + (2-30 fold (+)) | 1 to 10 | – | –
CCOc1cncc(-c2ccc(NC(=O)C(F)(CC)c3ccnc(NS(=O)(=O)C4CC4)n3)nc2)n1 (centres unmarked) [P112, 2-(2-(Cyclopropanesulfonamido)pyrimidin-4-yl)-N-(5-(6-ethoxypyrazin-2-yl)pyridin-2-yl)-2-fluorobutanamide] | – | – | ++ (>30-60 fold (++)) | < 0.1
CCOc1cncc(-c2ccc(NC(=O)C3(c4ccnc(NS(=O)(=O)C5CC5)n4)CCN(S(=O)(=O)CC)CC3)nc2)n1 [P289] | +++ (>60 fold (+++)) | < 0.1 | – | –
CCOc1cncc(-c2ccc(NC(=O)C3(c4ccnc(NS(=O)(=O)C5CC5)n4)CCN(S(=O)(=O)C4CC4)CC3)nc2)n1 [P290] | +++ (>60 fold (+++)) | < 0.1 | – | –
CCOc1cncc(-c2ccc(NC(=O)C3(c4ccnc(NS(=O)(=O)C5CC5)n4)CCN(S(=O)(=O)N(C)C)CC3)nc2)n1 [P291] | +++ (>60 fold (+++)) | < 0.1 | – | –
CCOc1cncc(-c2ccc(NC(=O)C3(c4ccnc(NS(=O)(=O)C5CC5)n4)CCN(S(=O)(=O)C(F)(F)F)CC3)nc2)n1 [P292] | +++ (>60 fold (+++)) | < 0.1 | – | –
CCOc1cncc(-c2ccc(NC(=O)C3(c4ccnc(NS(=O)(=O)C5CC5)n4)CCN(S(=O)(=O)c4ccn(C)n4)CC3)nc2)n1 [P293] | +++ (>60 fold (+++)) | < 0.1 | – | –
CCOc1cncc(-c2ccc(NC(=O)C3(c4nccc(NS(=O)(=O)C5CC5)n4)CCN(CC#N)CC3)nc2)n1 [P294] | +++ (>60 fold (+++)) | < 0.1 | – | –
CCOc1cncc(-c2ccc(NC(=O)C3(c4ccnc(NS(=O)(=O)CC)n4)CCN(S(C)(=O)=O)CC3)nc2)n1 [P297] | +++ (>60 fold (+++)) | < 0.1 | – | –
CCOc1cncc(-c2ccc(NC(=O)C3(c4ccnc(NS(=O)(=O)CC)n4)CCN(S(=O)(=O)CC)CC3)nc2)n1 [P298] | +++ (>60 fold (+++)) | < 0.1 | – | –
CCOc1cncc(-c2ccc(NC(=O)C3(c4ccnc(NS(=O)(=O)CC)n4)CCN(S(=O)(=O)C4CC4)CC3)nc2)n1 [P299] | +++ (>60 fold (+++)) | < 0.1 | – | –
CCOc1cncc(-c2ccc(NC(=O)C3(c4ccnc(NS(=O)(=O)CC)n4)CCN(S(=O)(=O)c4ccn(C)n4)CC3)nc2)n1 [P300] | +++ (>60 fold (+++)) | < 0.1 | – | –
COC1CCC(C(=O)Nc2ccc(-c3cncc(C4CC4)n3)cn2)(c2ccnc(NS(=O)(=O)C3CC3)n2)CC1 (centres unmarked) [P301] | +++ (>60 fold (+++)) | < 0.1 | – | –
CCOc1cncc(-c2ccc(NC(=O)C3(c4ccnc(NS(=O)(=O)C5CC5)n4)CCC(N4CCCC4)CC3)nc2)n1 (centres unmarked) [P302] | +++ (>60 fold (+++)) | < 0.1 | – | –
CCOc1cncc(-c2ccc(NC(=O)C3(c4ccnc(NS(=O)(=O)C5CC5)n4)CCC(N4CCCC4)CC3)nc2)n1 (centres unmarked) [P303] | +++ (>60 fold (+++)) | 0.1 to 1 | – | –
CCOc1cncc(-c2ccc(NC(=O)C3(c4ccnc(NS(=O)(=O)C5CC5)n4)CCC(N4CCOCC4)CC3)nc2)n1 (centres unmarked) [P305] | +++ (>60 fold (+++)) | 0.1 to 1 | – | –
